Source: patent US6127396A, “Imidazoline compounds” (Adir et Compagnie, priority 1998, dated 2000)
Where a name gives a salt, the structure may show the parent alone.

How the values were obtained:
Type in all cases: binding
α2-adrenergic receptors = test: Affinity for α2-adrenergic receptors in the rat, competition with [3H]-RX 821,002; settings: rat cerebral cortex membranes, 0.4 nM [3H]-RX 821,002, 60 minutes at 22° C.
Description: Determination of the Affinity for α2 -adrenergic Receptors in the Rat
The affinity was determined by competition experiments with [^3 H]-RX 821,002. The membranes are prepared from the cerebral cortex of the rat and are incubated in triplicate with 0.4 nM [^3 H]-RX 821,002 and the compound being tested in a final volume of 1.0 ml, for 60 minutes at 22° C. The incubation buffer contains […] TRIS-HCl (pH 7.5), 1 mM EDTA and 100 μM GppNHp. The non-specific binding is determined using 10 μM phentolamine.
(§1) At the end of the incubation, the incubation medium is filtered through WHATMAN GF/B filters impregnated with 0.1% of polyethylenimine and washed three times with 5 ml of cooled buffer. The radioactivity retained on the filters is determined by liquid scintillation counting. The binding isotherms are analysed by non-linear regression.

serotonin reuptake sites = biological target: T1, serotonin reuptake sites (Rattus norvegicus, UniProt P31652); test: Affinity for serotonin reuptake sites in the rat, competition with [3H]-paroxetine; settings: rat frontal cortex membranes, 0.25 nM [3H]-paroxetine, 2 hours at 25° C.
T1 construct: The membranes are prepared from the frontal cortex of the rat; from tissue; host or cells: rat frontal cortex membranes
Description: Determination of the Affinity for Serotonin Reuptake Sites in the Rat
The affinity was determined by competition experiments using [^3 H]-paroxetine. The membranes are prepared from the frontal cortex of the rat and are incubated in triplicate with 0.25 nM [^3 H]-paroxetine and the compound being tested in a final volume of 0.4 ml, for 2 hours at 25° C. The incubation buffer contains 50 mM TRIS-HCl (pH 7.4), 120 mM NaCl and 5 mM KCN. The non-specific binding is determined using 10 μM citalopram.
as §1

[1] = biological target: T2, noradrenaline reuptake sites (Rattus norvegicus, UniProt Q63380); test: Affinity for noradrenaline reuptake sites in the rat, competition with [3H]-nisoxetine; settings: rat frontal cortex membranes, 2 nM [3H]-nisoxetine, 4 hours at 4° C.
T2 construct: The membranes are prepared from the frontal cortex of the rat; from tissue; host or cells: rat frontal cortex membranes
Description: Determination of the Affinity for Noradrenaline Reuptake Sites in the Rat
The affinity was determined by competition experiments using [^3 H]-nisoxetine. The membranes are prepared from the frontal cortex of the rat and are incubated in triplicate with 2 nM [^3 H]-nisoxetine and the compound being tested in a final volume of 0.5 ml, for 4 hours at 4° C. The incubation buffer contains 50 mM TRIS-HCl (pH 7.4), 120 mM NaCl and 5 mM KCl. The non-specific binding is determined using 10 μM desipramine.
as §1

T2 sequence (Q63380 1-617): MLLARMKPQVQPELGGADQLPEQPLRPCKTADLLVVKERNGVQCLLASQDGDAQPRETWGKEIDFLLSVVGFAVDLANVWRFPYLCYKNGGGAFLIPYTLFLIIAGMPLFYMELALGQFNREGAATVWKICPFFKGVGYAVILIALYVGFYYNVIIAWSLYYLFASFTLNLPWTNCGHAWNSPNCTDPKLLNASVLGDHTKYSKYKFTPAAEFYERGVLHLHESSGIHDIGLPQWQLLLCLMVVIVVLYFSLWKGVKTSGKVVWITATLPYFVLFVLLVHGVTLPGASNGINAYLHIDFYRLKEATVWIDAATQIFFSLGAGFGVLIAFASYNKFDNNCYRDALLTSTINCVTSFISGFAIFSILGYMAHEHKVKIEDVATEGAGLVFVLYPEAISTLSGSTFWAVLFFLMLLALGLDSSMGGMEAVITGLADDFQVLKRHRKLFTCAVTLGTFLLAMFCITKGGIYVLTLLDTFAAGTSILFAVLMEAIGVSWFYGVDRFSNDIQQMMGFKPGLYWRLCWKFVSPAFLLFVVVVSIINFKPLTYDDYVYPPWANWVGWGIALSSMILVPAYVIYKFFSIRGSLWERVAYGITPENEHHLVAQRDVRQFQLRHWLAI
T1 sequence (P31652 whole entry): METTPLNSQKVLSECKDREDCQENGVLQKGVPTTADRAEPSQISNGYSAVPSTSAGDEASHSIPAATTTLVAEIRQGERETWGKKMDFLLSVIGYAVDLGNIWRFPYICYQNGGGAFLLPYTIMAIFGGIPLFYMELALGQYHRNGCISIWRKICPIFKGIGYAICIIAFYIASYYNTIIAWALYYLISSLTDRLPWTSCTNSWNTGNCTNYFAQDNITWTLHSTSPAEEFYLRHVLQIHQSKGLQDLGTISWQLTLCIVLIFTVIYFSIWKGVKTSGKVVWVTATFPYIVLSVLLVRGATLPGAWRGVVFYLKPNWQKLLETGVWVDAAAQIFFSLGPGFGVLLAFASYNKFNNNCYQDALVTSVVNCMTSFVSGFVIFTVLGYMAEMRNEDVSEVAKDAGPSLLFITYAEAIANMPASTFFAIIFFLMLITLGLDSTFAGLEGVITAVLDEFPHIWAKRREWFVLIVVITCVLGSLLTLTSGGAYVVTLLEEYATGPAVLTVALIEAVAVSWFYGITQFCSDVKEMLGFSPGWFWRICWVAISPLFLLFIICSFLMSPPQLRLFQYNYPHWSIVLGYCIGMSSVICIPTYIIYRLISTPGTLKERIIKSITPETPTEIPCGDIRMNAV

Question: Which pKi (α2-adrenergic receptors) does the source give for `C1=NCC(CC2Cc3ccccc3C2)N1` (stereo not drawn) [Example 22, 4-(2,3-Dihydro-1H-inden-2-ylmethyl)-4,5-dihydro-1H-imidazole hemi-fumarate] here?
Answer: The pKi was 8.8.

Question: For `COc1cccc2c1C=C(CC1CNC=N1)CC2.O=C(O)/C=C/C(=O)O` (stereo not drawn) [Example 12, 4-[(8-Methoxy-3,4-dihydro-2-naphthyl)methyl]-4,5-dihydro-1H-imidazole fumarate], which pKi (serotonin reuptake sites) is on record?
Answer: Its pKi is 7.8.

Question: With `C1=N[C@H](CC2=Cc3ccccc3CC2)CN1` [Example 2, (4R)-4-(3,4-dihydro-2-naphthylmethyl)-4,5-dihydro-1H-imidazole fumarate] as the molecule, how does the Ki [1] read?
Answer: Its Ki is 0.0158 µM.
